Experiments:
Type in all cases: biochemical
[1] = molecular target: T1, JAK3 (Homo sapiens, UniProt P52333); assay: JAK 3 enzymatic inhibitory activity IC50 assay (Caliper conversion rate); conditions: Km ATP, 28° C., 1 hour; read-out: JAK 3 enzymatic inhibitory activity IC50
T1 sequence (P52333 1-1124): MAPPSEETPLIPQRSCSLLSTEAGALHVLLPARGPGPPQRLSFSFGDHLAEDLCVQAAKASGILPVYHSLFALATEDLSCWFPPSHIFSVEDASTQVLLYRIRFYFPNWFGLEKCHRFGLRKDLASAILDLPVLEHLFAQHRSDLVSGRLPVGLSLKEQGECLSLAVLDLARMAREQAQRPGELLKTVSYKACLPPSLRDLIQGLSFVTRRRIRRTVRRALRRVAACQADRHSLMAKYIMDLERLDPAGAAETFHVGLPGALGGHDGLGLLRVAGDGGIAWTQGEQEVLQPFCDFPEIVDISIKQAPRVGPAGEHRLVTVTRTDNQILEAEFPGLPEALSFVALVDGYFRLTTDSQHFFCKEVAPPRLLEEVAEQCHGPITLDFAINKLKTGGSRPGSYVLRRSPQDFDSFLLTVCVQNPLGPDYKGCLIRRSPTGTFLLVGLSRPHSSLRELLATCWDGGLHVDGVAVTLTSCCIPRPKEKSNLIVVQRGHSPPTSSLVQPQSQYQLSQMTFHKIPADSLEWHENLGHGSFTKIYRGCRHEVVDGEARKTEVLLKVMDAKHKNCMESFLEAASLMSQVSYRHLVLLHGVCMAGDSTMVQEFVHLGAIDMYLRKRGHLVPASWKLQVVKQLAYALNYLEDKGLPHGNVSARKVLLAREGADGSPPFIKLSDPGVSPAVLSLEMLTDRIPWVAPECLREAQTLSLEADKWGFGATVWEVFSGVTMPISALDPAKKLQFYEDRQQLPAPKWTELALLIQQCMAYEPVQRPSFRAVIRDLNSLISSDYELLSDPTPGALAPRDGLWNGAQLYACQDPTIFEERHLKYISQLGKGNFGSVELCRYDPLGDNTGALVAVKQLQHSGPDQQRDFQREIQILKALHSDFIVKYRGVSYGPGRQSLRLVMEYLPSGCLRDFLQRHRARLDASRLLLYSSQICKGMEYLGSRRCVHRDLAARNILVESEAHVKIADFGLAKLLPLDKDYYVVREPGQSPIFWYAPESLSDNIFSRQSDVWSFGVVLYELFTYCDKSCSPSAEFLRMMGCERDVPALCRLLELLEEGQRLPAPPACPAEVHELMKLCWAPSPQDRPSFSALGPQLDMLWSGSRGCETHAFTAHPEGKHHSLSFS
Experimental: (§1) Biological effect: intracytoplasmic JAK 1,2,3 enzymatic inhibitory activity IC50 assay
(§2) JAK1 buffer solution: 25 mM HEPES, pH 7.5, 0.01% Brij-35, 0.01 M Triton. JAK2,3 buffer solution: 50 mM HEPES, pH 7.5, 0.0015% Brij-35.
(§3) 2. Compound was formulated in 100% DMSO in a concentration gradient, deposited to a 384-well plate with a final concentration of 2% of DMSO.
3. JAK2,3 enzymes were diluted to having an optimum concentration with the following buffer: 50 mM HEPES, pH 7.5, 0.0015% Brij-35, 2 mM DTT. JAK1 enzyme was diluted to having an optimum concentration with the following buffer: 25 mM HEPES, pH 7.5, 0.01% Brij-35, 2 mM DTT, 0.01M Triton. Then they were transferred to a 384-well plate and incubated with the compound for a certain time. […]
(§4) 5. Read the conversion rate by Caliper Reader, and the inhibition rate are calculated according to the average of two tests.

[2] = molecular target: JAK2 (Homo sapiens, UniProt O60674); assay: JAK 2 enzymatic inhibitory activity IC50 assay (Caliper conversion rate); conditions: Km ATP, 28° C., 1 hour
Experimental: as §1, §2, §3
(§5) 3. JAK2,3 enzymes were diluted to having an optimum concentration with the following buffer: 50 mM HEPES, pH 7.5, 0.0015% Brij-35, 2 mM DTT. JAK1 enzyme was diluted to having an optimum concentration with the following buffer: 25 mM HEPES, pH 7.5, 0.01% Brij-35, 2 mM DTT, 0.01M Triton. Then they were transferred to a 384-well plate and incubated with the compound for a certain time.
(§6) 4. JAK2,3 substrate was diluted to having an optimum concentration with the following buffer: 50 mM HEPES, pH 7.5, 0.0015% Brij-35, 10 mM MgCl2, Km adenosine triphosphate. JAK1 substrate was diluted to having an optimum concentration with the following buffer: 25 mM HEPES, pH 7.5, 0.01% Brij-35, 10 mM MgCl2, 0.01 M Triton. Km adenosine triphosphate was added into 384-well plates to initiate reactions, and the reaction were carried out at 28° C. for 1 hour.
as §4

[3] = molecular target: JAK1 (Homo sapiens, UniProt P23458); assay: JAK 1 enzymatic inhibitory activity IC50 assay (Caliper conversion rate); conditions: Km ATP, 28° C., 1 hour
Experimental: as §1, §2, §3, §5, §6, §4

Chain of JAK2 (O60674 whole entry, species assumed): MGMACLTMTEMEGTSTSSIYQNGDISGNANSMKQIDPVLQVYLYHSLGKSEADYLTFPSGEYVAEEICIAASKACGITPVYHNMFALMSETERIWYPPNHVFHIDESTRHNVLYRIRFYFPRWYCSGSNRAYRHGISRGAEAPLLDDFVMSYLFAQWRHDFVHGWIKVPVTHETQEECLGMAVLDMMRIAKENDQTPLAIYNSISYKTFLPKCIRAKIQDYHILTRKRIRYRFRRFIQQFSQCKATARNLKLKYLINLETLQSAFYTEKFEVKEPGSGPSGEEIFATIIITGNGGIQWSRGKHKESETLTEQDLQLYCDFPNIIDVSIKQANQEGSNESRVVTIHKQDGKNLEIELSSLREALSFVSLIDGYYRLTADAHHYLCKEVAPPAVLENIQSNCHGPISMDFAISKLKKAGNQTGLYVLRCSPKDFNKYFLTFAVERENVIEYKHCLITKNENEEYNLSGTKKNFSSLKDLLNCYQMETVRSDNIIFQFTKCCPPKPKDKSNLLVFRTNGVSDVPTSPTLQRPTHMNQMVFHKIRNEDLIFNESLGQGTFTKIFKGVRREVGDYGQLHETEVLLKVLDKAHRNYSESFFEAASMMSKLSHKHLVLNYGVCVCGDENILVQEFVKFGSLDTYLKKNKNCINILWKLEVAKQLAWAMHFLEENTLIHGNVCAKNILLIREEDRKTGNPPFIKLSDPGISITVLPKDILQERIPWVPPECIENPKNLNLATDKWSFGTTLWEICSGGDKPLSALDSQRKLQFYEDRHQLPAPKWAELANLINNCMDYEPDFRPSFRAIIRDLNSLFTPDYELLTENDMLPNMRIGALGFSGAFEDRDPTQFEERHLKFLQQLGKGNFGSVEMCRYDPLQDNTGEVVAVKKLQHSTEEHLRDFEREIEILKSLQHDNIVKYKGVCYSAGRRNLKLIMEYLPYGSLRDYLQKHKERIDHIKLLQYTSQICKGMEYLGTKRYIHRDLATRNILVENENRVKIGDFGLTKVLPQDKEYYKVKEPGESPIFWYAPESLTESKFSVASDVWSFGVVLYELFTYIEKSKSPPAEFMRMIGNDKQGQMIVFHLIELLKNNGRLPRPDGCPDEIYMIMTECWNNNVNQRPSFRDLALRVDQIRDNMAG
Chain of JAK1 (P23458 whole entry, species assumed): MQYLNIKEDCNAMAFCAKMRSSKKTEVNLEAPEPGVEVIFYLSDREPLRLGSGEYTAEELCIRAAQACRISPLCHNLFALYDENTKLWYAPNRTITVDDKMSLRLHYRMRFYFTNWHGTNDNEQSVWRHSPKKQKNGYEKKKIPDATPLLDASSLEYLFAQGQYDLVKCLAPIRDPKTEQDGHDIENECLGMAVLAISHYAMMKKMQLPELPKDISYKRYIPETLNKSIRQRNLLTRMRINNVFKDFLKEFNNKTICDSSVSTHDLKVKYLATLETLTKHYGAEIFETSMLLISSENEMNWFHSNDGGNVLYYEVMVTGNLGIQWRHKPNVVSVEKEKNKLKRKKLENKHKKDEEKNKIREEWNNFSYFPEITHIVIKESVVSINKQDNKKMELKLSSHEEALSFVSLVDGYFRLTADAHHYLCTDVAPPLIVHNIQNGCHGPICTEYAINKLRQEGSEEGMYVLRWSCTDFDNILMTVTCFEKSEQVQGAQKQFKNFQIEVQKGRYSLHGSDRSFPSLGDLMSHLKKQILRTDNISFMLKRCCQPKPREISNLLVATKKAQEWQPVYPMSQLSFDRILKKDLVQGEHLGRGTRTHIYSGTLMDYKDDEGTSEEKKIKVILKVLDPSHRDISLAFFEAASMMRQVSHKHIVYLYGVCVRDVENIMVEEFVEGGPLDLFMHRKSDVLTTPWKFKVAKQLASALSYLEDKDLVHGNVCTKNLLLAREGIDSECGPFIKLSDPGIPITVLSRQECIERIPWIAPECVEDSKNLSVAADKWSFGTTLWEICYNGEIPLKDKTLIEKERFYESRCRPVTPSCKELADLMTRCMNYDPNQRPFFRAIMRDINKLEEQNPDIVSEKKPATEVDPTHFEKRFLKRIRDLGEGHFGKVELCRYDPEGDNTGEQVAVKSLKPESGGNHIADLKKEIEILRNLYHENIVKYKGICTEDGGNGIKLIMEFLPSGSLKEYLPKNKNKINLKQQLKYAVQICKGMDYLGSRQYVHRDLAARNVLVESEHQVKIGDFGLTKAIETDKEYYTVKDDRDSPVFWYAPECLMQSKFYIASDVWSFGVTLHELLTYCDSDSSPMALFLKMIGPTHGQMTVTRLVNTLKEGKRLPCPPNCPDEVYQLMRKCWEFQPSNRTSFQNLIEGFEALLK

| SMILES | IC50 [1] [nM] | IC50 [2] [nM] | IC50 [3] [nM] |
| --- | --- | --- | --- |
| CCS(=O)(=O)N1CC(CC#N)(n2cc(-c3nc(Nc4cnn(CCCc5nn[nH]n5)c4)nc4ccsc34)cn2)C1 [Compound T-61, 2-(3-(4-(2-((1-(3-(2H-Tetrazol-5-yl)propyl)-1H-pyrazol-4-yl)amino)thieno[3,2-d]pyrimidin-4-yl)-1H-pyrazol-1-yl)-1-(ethylsulfonyl)azetidin-3-yl)acetonitrile] | < 50 | < 50 | < 50 |
| C[C@H](O)Cn1cc(Nc2nc(-c3cnn(C4(CC#N)CN(S(C)(=O)=O)C4)c3)c3sccc3n2)cn1 [Compound T-87, (S)-2-(3-(4-(2-((1-(2-Hydroxypropyl)-1H-pyrazol-4-yl)amino)thieno[3,2-d]pyrimidin-4-yl)-1H-pyrazol-1-yl)-1-(methylsulfonyl)azetidin-3-yl)acetonitrile] | < 50 | < 50 | < 50 |
| CCS(=O)(=O)N1CC(CC#N)(n2cc(-c3nc(Nc4cnn(CCC(=O)O)c4)nc4ccsc34)cn2)C1 [Compound T-35, 3-(4-((4-(1-(3-(Cyanomethyl)-1-(ethylsulfonyl)azetidin-3-yl)-1H-pyrazol-4-yl)thieno[3,2-d]pyrimidin-2-yl)amino)-1H-pyrazol-1-yl)propanoic acid] | 50 to 500 | < 50 | < 50 |
| CC(CC#N)n1cc(-c2nc(NCc3ccccc3)nc3ccsc23)cn1 (stereo not shown) [Compound T-01, 3-(4-(2-(Benzylamino)thieno[3,2-d]pyrimidin-4-yl)-1H-pyrazol-1-yl)butanenitrile] | > 1000 | > 1000 |  |
| Cn1cc(Nc2nc(-c3cnn(C4(CC#N)CC4)c3)c3sccc3n2)cn1 [Compound T-75, 2-(1-(4-(2-((1-Methyl-1H-pyrazol-4-yl)amino)thieno[3,2-d]pyrimidin-4-yl)-1H-pyrazol-1-yl)cyclopropyl)acetonitrile] | 50 to 500 | < 50 | 50 to 500 |
| CCS(=O)(=O)N1CC(CC#N)(n2cc(-c3nc(Nc4cnn(CC(=O)O)c4)nc4ccsc34)cn2)C1 [Compound T-33, 2-(4-((4-(1-(3-(Cyanomethyl)-1-(ethylsulfonyl)azetidin-3-yl)-1H-pyrazol-4-yl)thieno[3,2-d]pyrimidin-2-yl)amino)-1H-pyrazol-1-yl)acetic acid] | 50 to 500 | < 50 | < 50 |
| CCS(=O)(=O)N1CC(CC#N)(n2cc(-c3nc(Nc4ccc(-n5cccn5)cc4)nc4ccsc34)cn2)C1 [Compound T-11, 2-(3-(4-(2-((4-(1H-Pyrazol-1-yl)phenyl)amino)thieno[3,2-d]pyrimidin-4-yl)-1H-pyrazol-1-yl)-1-(ethylsulfonyl)azetidin-3-yl)acetonitrile] | > 1000 | < 50 | 50 to 500 |
| CCS(=O)(=O)N1CC(CC#N)(n2cc(-c3nc(Nc4cn[nH]c4)nc4ccsc34)cn2)C1 [Compound T-31, 2-(3-(4-(2-((1H-Pyrazol-4-yl)amino)thieno[3,2-d]pyrimidin-4-yl)-1H-pyrazol-1-yl)-1-(ethylsulfonyl)azetidin-3-yl)acetonitrile] | 50 to 500 | < 50 | < 50 |
| CCS(=O)(=O)N1CC(CC#N)(n2cc(-c3nc(NC(=O)C4CC4)nc4ccsc34)cn2)C1 [Compound T-29, N-(4-(1-(3-(Cyanomethyl)-1-(ethylsulfonyl)azetidin-3-yl)-1H-pyrazol-4-yl)thieno[3,2-d]pyrimidin-2-yl)cyclopropanecarboxamide] | > 1000 | < 50 | 50 to 500 |
| N#Cc1ccc(-c2nc(Nc3ccccc3)nc3ccsc23)cc1F [Compound T-56, 2-Fluoro-4-(2-(phenylamino)thieno[3,2-d]pyrimidin-4-yl)benzonitrile] | > 1000 | > 1000 | > 1000 |
| Cn1cc(Nc2nc(-c3cnn(C4(CC#N)CN(S(C)(=O)=O)C4)c3)c3sccc3n2)cn1 [Compound T-74, 2-(3-(4-(2-((1-Methyl-1H-pyrazol-4-yl)amino)thieno[3,2-d]pyrimidin-4-yl)-1H-pyrazol-1-yl)-1-(methylsulfonyl)azetidin-3-yl)acetonitrile] | < 50 | < 50 | < 50 |
| CCS(=O)(=O)N1CC(CC#N)(n2cc(-c3nc(Nc4cc(C)[nH]n4)nc4ccsc34)cn2)C1 [Compound T-72, 2-(1-(Ethylsulfonyl)-3-(4-(2-((5-methyl-1H-pyrazol-3-yl)amino)thieno[3,2-d]pyrimidin-4-yl)-1H-pyrazol-1-yl)azetidin-3-yl)acetonitrile] | < 50 | < 50 | < 50 |
| CCS(=O)(=O)N1CC(CC#N)(n2cc(-c3nc(Nc4ccc(OCCN5CCOCC5)cc4)nc4ccsc34)cn2)C1 [Compound T-08, 2-(1-(Ethylsulfonyl)-3-(4-(2-((4-(2-morpholinoethoxy)phenyl)amino)thieno[3,2-d]pyrimidin-4-yl)-1H-pyrazol-1-yl)azetidin-3-yl)acetonitrile] | 50 to 500 | < 50 |  |
| CCS(=O)(=O)N1CC(CC#N)(n2cc(-c3nc(NC4CCCCC4)nc4ccsc34)cn2)C1 [Compound T-27, 2-(3-(4-(2-(Cyclohexylamino)thieno[3,2-d]pyrimidin-4-yl)-1H-pyrazol-1-yl)-1-(ethylsulfonyl)azetidin-3-yl)acetonitrile] | > 1000 | > 1000 |  |
| CCS(=O)(=O)N1CC(CC#N)(n2cc(-c3nc(Nc4ccc(F)cc4)nc4ccsc34)cn2)C1 [Compound T-24, 2-(1-(Ethylsulfonyl)-3-(4-(2-((4-fluorophenyl)amino)thieno[3,2-d]pyrimidin-4-yl)-1H-pyrazol-1-yl)azetidin-3-yl)acetonitrile] | > 1000 | < 50 |  |
| N#CCC(C1CCCC1)n1cc(-c2nc(Nc3ccccc3)nc3ccsc23)cn1 (stereo not shown) [Compound T-03, 3-Cyclopentyl-3-(4-(2-(phenylamino)thieno[3,2-d]pyrimidin-4-yl)-1H-pyrazol-1-yl)propanenitrile] | > 1000 | < 50 |  |
| N#CCC(C1CCCC1)n1cc(-c2nc(Nc3cncnc3)nc3ccsc23)cn1 (stereo not shown) [Compound T-04, 3-Cyclopentyl-3-(4-(2-(pyrimidin-5-ylamino)thieno[3,2-d]pyrimidin-4-yl)-1H-pyrazol-1-yl)propanenitrile] | > 1000 | < 50 |  |
| CC(CC#N)n1cc(-c2nc(Nc3ccccc3)nc3ccsc23)cn1 (stereo not shown) [Compound T-02, 3-(4-(2-(Phenylamino)thieno[3,2-d]pyrimidin-4-yl)-1H-pyrazol-1-yl)butanenitrile] | > 1000 | 50 to 500 |  |
| CCS(=O)(=O)N1CC(CC#N)(n2cc(-c3nc(NC4CCOCC4)nc4ccsc34)cn2)C1 [Compound T-06, 2-(1-(Ethylsulfonyl)-3-(4-(2-((tetrahydro-2H-pyran-4-yl)amino)thieno[3,2-d]pyrimidin-4-yl)-1H-pyrazol-1-yl)azetidin-3-yl)acetonitrile] | > 1000 | > 1000 |  |

Source: patent publication US9745320B2, “Five-and-six-membered heterocyclic compound, and preparation method, pharmaceutical composition and use thereof” (SHANGHAI CHEMEXPLORER CO., LTD., priority 2013, dated 2017)
